Data published in patent US7405063B2, “Biooxidation capabilities of Candida sp” (Cognis Corporation, priority 2000, dated 2008).
Marks after values point to notes of the source that are not given here.

Experiments:
C. tropicalis = assay: Toxicity tests of additional substrates (absorbance at 600 nm); type: cell-based; conditions: 24 hours, added without solvent
Procedure: Additional substrates were to be tested for bioconversion following a slightly different protocol than the one noted above in Example 3. Those substrates also had to be tested for toxicity similar to the test described in Example 2, to determine the highest concentration at which a substrate could be added to a culture broth without being toxic, inhibiting growth, or interfering with the bioconversion process. C. tropicalis was grown in the presence of the substrate at three different concentrations and growth was monitored spectrophotometrically. In contrast to Example 2, all test substrates were added directly to the culture medium without dissolving in solvent. The tests were completed as follows:
On the first day, H5343 was grown in YPD medium (25.0 ml seed culture) overnight on a rotary shaker at 30° C. and 250 rpm. The next day 1.0 ml of the seed culture was used to inoculate a new flask of 50 ml YPD. This culture was grown overnight on a rotary shaker at 30° C. and 250 rpm. […]
Two control flasks were each inoculated with H5343 in 25 ml YPD. All flasks were incubated on a rotary shaker at 30° C. and 250 rpm.
After 24 hours incubation, the absorbance at 600 nm of the test and control flask cultures was determined, using uninoculated YPD broth as blank. Cultures were diluted so that the OD^600 nm measured between 0.15 and 0.3.
For strongly inhibitory substrates, a concentration of 0.1-0.2% was chosen for the bioconversion tests.

[1] = system: C. tropicalis strain H5343; assay: Toxicity tests of substrates (growth by absorbance at 600 nm, streak plates); type: cell-based; conditions: for ABS 600.0 nm: 48 h, 30° C., dilution in YPD 1:100
Procedure: The toxicity test used here was similar to that used for the solvents described in Example 1. The goal was to determine the highest concentration at which a substrate could be added to a culture broth without being toxic, inhibiting growth, or interfering with the bioconversion process. C. tropicalis strain H5343 was grown in the presence of the substrate at different concentrations and growth was monitored spectrophotometrically. In order to determine if the substrate was lethal or was simply inhibiting growth, the cultures were examined under the microscope and streak plates of YPD and LB agar were prepared. Contamination of the culture with an unwanted organism could also be detected using this approach.
6 ml was transferred to the first tube and 3 ml to the rest. 1% substrate was added to the first tube and then serially diluted to give concentrations from 1% to 0.015%. Since the last tube was initially empty, the concentration in the last two tubes was the same. […] As a growth-control one culture without substrate was inoculated.
To determine if contamination had occurred, each culture was examined under the microscope and streak plates of both YPD and LB were made from the 1% and the inoculated 0.015% tube.

[2] = substrate concentration 0.01563%
[3] = substrate concentration 0.0313%

| Structure (SMILES) | Absorbance at 600 nm (C. tropicalis; substrate concentration 0.1%) | Absorbance at 600 nm (C. tropicalis; substrate concentration 0.5%) | Absorbance at 600 nm (C. tropicalis; substrate concentration 1.0%) | Absorbance at 600 nm (C. tropicalis; substrate concentration 0.06%) | Absorbance at 600 nm (C. tropicalis; substrate concentration 0.3%) | Absorbance at 600 nm (C. tropicalis; substrate concentration 0.6%) | ABS 600.0 nm [1, 2] | ABS 600.0 nm [1, 3] | ABS 600.0 nm ([1]; substrate concentration 0.063%) | ABS 600.0 nm ([1]; substrate concentration 0.13%) | ABS 600.0 nm ([1]; substrate concentration 0.25%) | ABS 600.0 nm ([1]; substrate concentration 0.5%) | ABS 600.0 nm ([1]; substrate concentration 1%) | Toxic at (concentration) ([1]; Phase I screening summary) |
| --- | --- | --- | --- | --- | --- | --- | --- | --- | --- | --- | --- | --- | --- | --- |
| C=CCCCCCCCCCCCCCCCC [1-Octadecene] | 34.93 | 36.33 | 34.7 |  |  |  |  |  |  |  |  |  |  |  |
| CCCCC(CC)C1OCCN1CCCC (stereo not shown) [3-Butyl-(ethylpentyl)oxazolidine, 3-Butyl-2(1-ethylpentyl)oxazolidine] |  |  |  | 12.5 | 0.245 | 1.18 |  |  |  |  |  |  |  |  |
| C=CCCCCCCCCCCCC [C14 a-Olefin, 1-tetradecene] |  |  |  |  |  |  | 0.061 | 0.084 | 0.085 | 0.097 | 0.115 | 0.084 | 0.087 |  |
| CCCCCCCC/C=C\CCCCCCCCO [HD-Ocenol, oleyl alcohol] |  |  |  |  |  |  | 0.093 | 0.087 | 0.076 | 0.115 | 0.097 | 0.085 | 0.087 |  |
| C=COCCCCCCCCCCCC [Dodecylvinylether] | 20.43 | 12.63 | 7.33 |  |  |  |  |  |  |  |  |  |  |  |
| CCCCC(=O)C(C)C [2-Methyl-3-heptanone] |  |  |  | 19.2 | 0.099 | 0.125 |  |  |  |  |  |  |  |  |
| CCCCCCC(CO)CCCC (stereo not shown) [2-Butyl-1-octanol] | 10.53 | 8.973 | 6.213 |  |  |  |  |  |  |  |  |  |  |  |
| CCCCCCCCCC(CCCCCCC)C(=O)O (stereo not shown) [2-Heptylundecanoic acid] |  |  |  |  |  |  | 0.082 | 0.077 | 0.077 | 0.043 |  | 0.048 | 0.268 |  |
| C=CCCCCCCCCCC [C12 a-Olefin] |  |  |  |  |  |  | 0.077 | 0.119 | 0.119 | 0.082 | 0.080 | 0.080 | 0.082 |  |
| CCCCCC/C=C/CCCCCC [trans-7-tetradecene] |  |  |  |  |  |  | 0.117 | 0.106 | 0.112 | 0.104 | 0.103 | 0.107 | 0.095 |  |
| CCCCCCCCCCCCO [1-Dodecanol] |  |  |  |  |  |  | 0.000 | 0.000 | 0.000 | 0.004 | 0.032** | 0.013** | 0.267** |  |
| CCCCCCCCCCCCN [Dodecyclamine, Dodecylamine] |  |  |  |  |  |  | 0.000 | 0.000 | 0.000 | 0.000 | 0.000 | 0.000 | 0.000 | Toxic at 0.01% |
| C=C(C)[C@@H]1CC=C(C)CC1 [S(−) limonene] |  |  |  |  |  |  | 0.104 | 0.094 | 0.011 | 0.002 | 0.000 | 0.002 | 0.002 |  |
| C=CCCCCCCCCCC [Dodecene] |  |  |  |  |  |  | 0.088 | 0.055 | 0.079 | 0.050 | 0.053 | 0.032 | 0.026 |  |
| CCCCCCCCC(=O)CCCCCCCC [9-Heptadecanone] |  |  |  |  |  |  | 0.100 | 0.120 | 0.064 | 0.103 | 0.120 | 0.073 | 0.004** |  |
| C=C[C@](C)(O)CC[C@@H]1[C@@]2(C)CCCC(C)(C)[C@@H]2CC[C@@]1(C)O [Indu-Extrakt-sclareol, sclareol] |  |  |  |  |  |  | 0.083 | 0.100 | 0.157 | 0.106 | 0.110 | 0.092 | 0.083 |  |
| C=C(C)[C@H]1CC=C(C)CC1 [R(+) limonene] |  |  |  |  |  |  | 0.123 | 0.117 | 0.106 | 0.007 | 0.000 | 0.000 | 0.000 |  |
| CCCCCC(O)CCCCC [6-Undecanol] |  |  |  |  |  |  | 0.000** | 0.000** | 0.000** | 0.000** | 0.000** | 0.000** | 0.000** |  |
| CCCCCCCCCCCCCCCCOC(=O)CCCCCCCC [Hexadecyl pelargonate] |  |  |  |  |  |  | 0.112 | 0.095 | 0.075 | 0.083 | 0.103 | 0.102 | 0.080 |  |
| CCCCCC#CCCCCC [6-Dodecyne] |  |  |  |  |  |  | 0.125 | 0.083 | 0.074 | 0.071 | 0.073 | 0.071 | 0.066 |  |
| CCCCC(CC)C(=O)O (stereo not shown) [2-Ethylhexanoic acid] |  |  |  |  |  |  | 0.099 | 0.051 | 0.000 | 0.000 | 0.000 | 0.000 | 0.000 |  |
| CCCCCCC(O)CCCCCCCCCCC(=O)O (stereo not shown) [12-Hydroxystearic acid] |  |  |  |  |  |  |  |  |  |  |  |  | 0.120 |  |
| CCCCCCCCCCCCCCCCOC(C)=O [Hexadecyl acetate] |  |  |  |  |  |  | 0.110 | 0.104 | 0.089 | 0.083 | 0.110 | 0.103 | 0.155 |  |
| C/C=C/CCCCCC [trans-2-nonene] |  |  |  |  |  |  | 0.112 | 0.100 | 0.105 | 0.066 | 0.000 | 0.000 | 0.000 |  |
